In PubChem BioAssay AID2060613 (Molecular Pharmacology Branch, DTP, NCI, 2025):

Test system: 233499-124-R-J3-PDC complex spheroid viability
Assay: Anticancer human tumor 233499-124-R-J3-PDC patient-derived colon adenocarcinoma cell line growth inhibition [CLK]
Details: for IC50: curve of first compound; for viability, T/C: stronger effect = lower value
Procedure, shortened: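 Multi-cell-type spheroids combined patient-derived tumor cells with HUVEC endothelial cells and human mesenchymal stem cells. Paired agents were dosed in half-log steps down from about clinical Cmax, or from 10 microM where Cmax was unknown.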

[1] = second compound 0.0316 µM, first compound 0.0316 µM
[2] = second compound 0.0316 µM, first compound 0.1 µM
[3] = second compound 0.0316 µM, first compound 0.316 µM
[4] = second compound 0.0316 µM, first compound 1 µM
[5] = second compound 0.0316 µM, first compound 3.16 µM
[6] = second compound 0.0316 µM, first compound 10 µM
[7] = second compound 0.1 µM, first compound 0.0316 µM
[8] = second compound 0.1 µM, first compound 0.1 µM
[9] = second compound 0.1 µM, first compound 0.316 µM
[10] = second compound 0.1 µM, first compound 1 µM
[11] = second compound 0.1 µM, first compound 3.16 µM
[12] = second compound 0.1 µM, first compound 10 µM
[13] = second compound 0.316 µM, first compound 0.0316 µM
[14] = second compound 0.316 µM, first compound 0.1 µM
[15] = second compound 0.316 µM, first compound 0.316 µM
[16] = second compound 0.316 µM, first compound 1 µM
[17] = second compound 0.316 µM, first compound 3.16 µM
[18] = second compound 0.316 µM, first compound 10 µM
[19] = second compound 1 µM, first compound 0.0316 µM
[20] = second compound 1 µM, first compound 0.1 µM
[21] = second compound 1 µM, first compound 0.316 µM
[22] = second compound 1 µM, first compound 1 µM
[23] = second compound 1 µM, first compound 3.16 µM
[24] = second compound 1 µM, first compound 10 µM
[25] = second compound 3.16 µM, first compound 0.0316 µM
[26] = second compound 3.16 µM, first compound 0.1 µM
[27] = second compound 3.16 µM, first compound 0.316 µM
[28] = second compound 3.16 µM, first compound 1 µM
[29] = second compound 3.16 µM, first compound 3.16 µM
[30] = second compound 3.16 µM, first compound 10 µM
[31] = second compound 10 µM, first compound 0.0316 µM
[32] = second compound 10 µM, first compound 0.1 µM
[33] = second compound 10 µM, first compound 0.316 µM
[34] = second compound 10 µM, first compound 1 µM
[35] = second compound 10 µM, first compound 3.16 µM
[36] = second compound 10 µM, first compound 10 µM
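Also: spheroids exposed to the drug combinations for seven days.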
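For viability, T/C in this document: percent viability relative to DMSO vehicle control wells taken as 100%.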

## CC1COCCN1c1cc(C2(S(C)(=N)=O)CC2)nc(-c2ccnc3[nH]ccc23)n1 (stereo unspecified) + CNC(=O)c1ccc(Nc2nc(OC3CCCC3)c3c(-c4ccc5nc(C)oc5c4)c[nH]c3n2)c(OC)c1
Second compound 0.0316 µM
  IC50: 9040 nM
Second compound 0.1 µM
  IC50: 8710 nM
Second compound 0.316 µM
  IC50: 6660 nM
Second compound 1 µM
  IC50: 5520 nM
Second compound 3.16 µM
  IC50: 3240 nM
Second compound 10 µM
  IC50: 4410 nM
[1]
  viability, T/C: 90%
[2]
  viability, T/C: 103%
[3]
  viability, T/C: 77.8%
[4]
  viability, T/C: 87.5%
[5]
  viability, T/C: 89.7%
[6]
  viability, T/C: 46.2%
[7]
  viability, T/C: 76.6%
[8]
  viability, T/C: 76.9%
[9]
  viability, T/C: 71.6%
[10]
  viability, T/C: 70.1%
[11]
  viability, T/C: 70.5%
[12]
  viability, T/C: 47.2%
[13]
  viability, T/C: 81.3%
[14]
  viability, T/C: 88.1%
[15]
  viability, T/C: 74%
[16]
  viability, T/C: 76.6%
[17]
  viability, T/C: 68%
[18]
  viability, T/C: 40.3%
[19]
  viability, T/C: 86.4%
[20]
  viability, T/C: 59.8%
[21]
  viability, T/C: 61.8%
[22]
  viability, T/C: 74.1%
[23]
  viability, T/C: 61.7%
[24]
  viability, T/C: 36.8%
[25]
  viability, T/C: 72.8%
[26]
  viability, T/C: 77.6%
[27]
  viability, T/C: 82.5%
[28]
  viability, T/C: 70.3%
[29]
  viability, T/C: 50.8%
[30]
  viability, T/C: 30.5%
[31]
  viability, T/C: 69.5%
[32]
  viability, T/C: 69.3%
[33]
  viability, T/C: 69.2%
[34]
  viability, T/C: 63.8%
[35]
  viability, T/C: 59.6%
[36]
  viability, T/C: 29%

## CC(Nc1ccc2c(c1)OCCn1cc(N3C(=O)OCC3C(F)F)nc1-2)C(N)=O (stereo unspecified) + CNC(=O)c1ccc(Nc2nc(OC3CCCC3)c3c(-c4ccc5nc(C)oc5c4)c[nH]c3n2)c(OC)c1
Second compound 0.0316 µM
  IC50: > 10000 nM
Second compound 0.1 µM
  IC50: 3880 nM
Second compound 0.316 µM
  IC50: 2810 nM
Second compound 1 µM
  IC50: 316 nM
Second compound 3.16 µM
  IC50: 624 nM
Second compound 10 µM
  IC50: 1080 nM
[1]
  viability, T/C: 85.3%
[2]
  viability, T/C: 94.6%
[3]
  viability, T/C: 81%
[4]
  viability, T/C: 72.7%
[5]
  viability, T/C: 65.5%
[6]
  viability, T/C: 53.6%
[7]
  viability, T/C: 68.9%
[8]
  viability, T/C: 75.1%
[9]
  viability, T/C: 72.2%
[10]
  viability, T/C: 64.8%
[11]
  viability, T/C: 52.9%
[12]
  viability, T/C: 38.6%
[13]
  viability, T/C: 66.9%
[14]
  viability, T/C: 65.7%
[15]
  viability, T/C: 72.2%
[16]
  viability, T/C: 58.4%
[17]
  viability, T/C: 49.6%
[18]
  viability, T/C: 32.5%
[19]
  viability, T/C: 74.8%
[20]
  viability, T/C: 74.9%
[21]
  viability, T/C: 50%
[22]
  viability, T/C: 42.7%
[23]
  viability, T/C: 45.9%
[24]
  viability, T/C: 42.4%
[25]
  viability, T/C: 61.3%
[26]
  viability, T/C: 63.6%
[27]
  viability, T/C: 56.4%
[28]
  viability, T/C: 41.1%
[29]
  viability, T/C: 42.3%
[30]
  viability, T/C: 37%
[31]
  viability, T/C: 60.8%
[32]
  viability, T/C: 55.9%
[33]
  viability, T/C: 68.1%
[34]
  viability, T/C: 44.8%
[35]
  viability, T/C: 39%
[36]
  viability, T/C: 22.2%

## CC(C)CC(NC(=O)C(Cc1ccccc1)NC(=O)c1cnccn1)B(O)O (stereo unspecified) + CNC(=O)c1ccc(Nc2nc(OC3CCCC3)c3c(-c4ccc5nc(C)oc5c4)c[nH]c3n2)c(OC)c1
Second compound 0.0316 µM
  IC50: 5.39 nM
Second compound 0.1 µM
  IC50: 4.71 nM
Second compound 0.316 µM
  IC50: 2.27 nM
Second compound 1 µM
  IC50: 2.07 nM
Second compound 3.16 µM
  IC50: 1.51 nM
Second compound 10 µM
  IC50: 1.97 nM
Second compound 0.0316 µM, first compound 0.000949 µM
  viability, T/C: 96.3%
Second compound 0.0316 µM, first compound 0.003 µM
  viability, T/C: 106%
Second compound 0.0316 µM, first compound 0.00949 µM
  viability, T/C: 0.33%
Second compound 0.0316 µM, first compound 0.03 µM
  viability, T/C: 0.21%
Second compound 0.0316 µM, first compound 0.0949 µM
  viability, T/C: 0.19%
Second compound 0.0316 µM, first compound 0.3 µM
  viability, T/C: 0.17%
Second compound 0.1 µM, first compound 0.000949 µM
  viability, T/C: 81.5%
Second compound 0.1 µM, first compound 0.003 µM
  viability, T/C: 82.5%
Second compound 0.1 µM, first compound 0.00949 µM
  viability, T/C: 0.57%
Second compound 0.1 µM, first compound 0.03 µM
  viability, T/C: 0.17%
Second compound 0.1 µM, first compound 0.0949 µM
  viability, T/C: 0.16%
Second compound 0.1 µM, first compound 0.3 µM
  viability, T/C: 0.16%
Second compound 0.316 µM, first compound 0.000949 µM
  viability, T/C: 69.5%
Second compound 0.316 µM, first compound 0.003 µM
  viability, T/C: 43.7%
Second compound 0.316 µM, first compound 0.00949 µM
  viability, T/C: 0.19%
Second compound 0.316 µM, first compound 0.03 µM
  viability, T/C: 0.16%
Second compound 0.316 µM, first compound 0.0949 µM
  viability, T/C: 0.14%
Second compound 0.316 µM, first compound 0.3 µM
  viability, T/C: 0.54%
Second compound 1 µM, first compound 0.000949 µM
  viability, T/C: 92.2%
Second compound 1 µM, first compound 0.003 µM
  viability, T/C: 30.1%
Second compound 1 µM, first compound 0.00949 µM
  viability, T/C: 0.18%
Second compound 1 µM, first compound 0.03 µM
  viability, T/C: 0.15%
Second compound 1 µM, first compound 0.0949 µM
  viability, T/C: 0.15%
Second compound 1 µM, first compound 0.3 µM
  viability, T/C: 0.15%
Second compound 3.16 µM, first compound 0.000949 µM
  viability, T/C: 71.7%
Second compound 3.16 µM, first compound 0.003 µM
  viability, T/C: 18.4%
Second compound 3.16 µM, first compound 0.00949 µM
  viability, T/C: 0.16%
Second compound 3.16 µM, first compound 0.03 µM
  viability, T/C: 0.16%
Second compound 3.16 µM, first compound 0.0949 µM
  viability, T/C: 0.16%
Second compound 3.16 µM, first compound 0.3 µM
  viability, T/C: 0.7%
Second compound 10 µM, first compound 0.000949 µM
  viability, T/C: 77%
Second compound 10 µM, first compound 0.003 µM
  viability, T/C: 34.5%
Second compound 10 µM, first compound 0.00949 µM
  viability, T/C: 0.2%
Second compound 10 µM, first compound 0.03 µM
  viability, T/C: 0.17%
Second compound 10 µM, first compound 0.0949 µM
  viability, T/C: 0.2%
Second compound 10 µM, first compound 0.3 µM
  viability, T/C: 0.66%
